In test [1] the target is T1, IDO1 (Homo sapiens, UniProt P14902). As to the kind of experiment: Hela cell-based IDO1 assay. The conditions noted are these: Hela cells. Summed up: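 HeLa cells were plated at 8000 per well in 96-well plates containing phenol red-free DMEM with 10% FBS, and after 4 hours compound dilutions made in DMSO were added together with IFN-γ (final 100 ng/mL) and 0.4 mM L-Trp before 48 hours at 37 °C, 5% CO2. Supernatants were deproteinised with trichloroacetic acid, mixed with 2% 4-(dimethylamino)benzaldehyde and read at 480 nm for kynurenine. Four-parameter logistic fits were run in XLfit. Potency was derived from these fits.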
T1 sequence (P14902 whole entry): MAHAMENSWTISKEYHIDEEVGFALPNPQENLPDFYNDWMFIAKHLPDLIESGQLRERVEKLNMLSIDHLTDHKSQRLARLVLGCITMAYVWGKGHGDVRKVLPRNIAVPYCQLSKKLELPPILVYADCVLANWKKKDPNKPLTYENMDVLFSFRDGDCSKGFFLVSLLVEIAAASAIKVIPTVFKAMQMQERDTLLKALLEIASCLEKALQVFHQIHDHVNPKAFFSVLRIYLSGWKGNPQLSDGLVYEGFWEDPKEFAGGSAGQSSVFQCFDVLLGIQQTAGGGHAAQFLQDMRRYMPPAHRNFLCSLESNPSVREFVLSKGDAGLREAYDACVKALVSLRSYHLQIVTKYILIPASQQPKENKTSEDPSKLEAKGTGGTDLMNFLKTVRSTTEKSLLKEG

The target of test [2] is T2, cellular TDO2 in HEK293-TDO2 cells (Homo sapiens, UniProt P48775).
T2 construct: expressed in transfected cells; host or cells: HEK293 (ATCC), stably transfected
T2 sequence (P48775 whole entry): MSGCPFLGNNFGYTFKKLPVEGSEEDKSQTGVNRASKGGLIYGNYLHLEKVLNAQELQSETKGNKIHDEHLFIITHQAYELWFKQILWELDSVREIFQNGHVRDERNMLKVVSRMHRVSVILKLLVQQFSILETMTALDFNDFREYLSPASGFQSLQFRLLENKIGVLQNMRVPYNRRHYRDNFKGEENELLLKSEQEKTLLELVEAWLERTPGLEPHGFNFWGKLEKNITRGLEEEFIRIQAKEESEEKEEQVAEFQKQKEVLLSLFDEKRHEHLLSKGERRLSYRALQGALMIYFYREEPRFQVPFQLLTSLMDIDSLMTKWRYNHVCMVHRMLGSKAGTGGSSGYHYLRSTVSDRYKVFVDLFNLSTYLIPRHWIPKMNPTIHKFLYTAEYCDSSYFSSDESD
As to the kind of experiment: 293-TDO2 cell-based assay (Kyn colorimetric). The settings on record: 48 hours of incubation. How it is done: The inhibitory activity of TDO2 inhibitors is determined by using a colorimetric reaction to measure Kyn generated from L-Trp (L-Tryptophon) oxidation by cellular TDO2 in HEK293-TDO2 cells stably transfected with a plasmid expression of Tryptophan 2,3-dioxygenase (for short, 293-TDO2).
HEK293 cells were obtained from the American Type Culture Collection and 293-TDO2 were recovered in 10% FBS-containing phenol red-free DMEM medium. Cells were plated onto a 96-well plate (100 μl/well) at 10000 cells per well and kept at 37° C. in a humidified incubator supplied with 5% CO2. 4 hours later, Compounds at different concentrations diluted in dimethylsulfoxide (DMSO) were added to plate. Cells were kept at 37° C. in a humidified incubator supplied with 5% CO2. After 48 hours of incubation, 100 μl supernatant from each well was removed to a new plate. The protein in the medium was precipitated with the addition of 8 μl 6N trichloroacetic acid. The plate was incubated at 60° C. for 30 minutes and then centrifugation at 2500 rpm for 10 minutes to remove sediments. 80 μl supernatants were carefully removed to a new clean plate and added with an equal volume of 2% 4-(Dimethylamino) benzaldehyde (D2004, sigma) dissolved in glacial acetic acid. The absorbance at 480 nm wavelength derived from Kyn was measured using a PHERAstar FS plate reader (BMG LABTECH). The IC50 for each compound was derived from fitting the dose-response data to the four-parameter logistic model by using XLfit software (IDBS).

In test [3] the target is T1, IDO1. Nature of the test: IDO1 enzymatic assay. The conditions noted are these: read-out: Enzyme IC50 IDO1. Also noted: His tag (N); made in house; host or cells: E. coli. Format: biochemical. In outline: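 Compound was incubated with 50 nM His-tagged IDO1 from E. coli, 1.3 mM D-tryptophan, 5 mM L-ascorbic acid, methylene blue and 0.4 mg/mL catalase in 50 mM potassium phosphate pH 7.5, 0.1% BSA, at 24 °C for 1.5 hours. Activity was the slope of N'-formylkynurenine formation read continuously at 321 nm for 1 hour. IC50 was obtained from remaining activity versus compound concentration.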

Where only a bound is given, the exact number is not on record here.

What is called EC50 is the concentration needed to bring the measured effect to its halfway point. Lower therefore signals higher potency in that assay. As usually defined, the IC50 is the concentration that inhibits the measured activity by half. As for `O=C(O)c1ccc([C@H]2CC[C@H]([C@@H](O)c3c(C4CC4)ccc4cncn34)CC2)cc1` (single isomer, unassigned) [Example D111b], the EC50 (on IDO1 [1]; in test [2]) was over 10 µM in each case. In addition, on IDO1 [3], the IC50 was 1.2 µM.
On to `Oc1ccccc1[C@H]1CC[C@H]([C@H](O)c2c(C3CC3)ccc3cncn23)CC1` (single isomer, unassigned) [Example D112a], for which the concentration giving a half-maximal response (EC50) is 0.026 µM at IDO1 [1] and over 10 µM in test [2]. Further, the IC50 at IDO1 [3] amounted to 0.015 µM.
In the same order, the values of `Oc1ccccc1[C@H]1CC[C@H]([C@@H](O)c2c(C3CC3)ccc3cncn23)CC1` (single isomer, unassigned) [Example D112b] are over 10 µM, over 10 µM and 1.7 µM.
In the same order, the values of `OC(c1c(C2CC2)ccc2cncn12)[C@H]1CC[C@H](c2ccc(OC3CCOCC3)cc2)CC1` (single isomer, unassigned) [Example D114b] are 3.97 µM, over 10 µM and 2.6 µM.
As to `CC(C)c1ccc2cncn2c1[C@H](O)[C@H]1CC[C@H](c2ccc(Cl)cc2)CC1` (single isomer, unassigned) [Example D115b], the EC50 on IDO1 [1] was 5.68 µM; in test [2], over 10 µM. For the same compound, the IC50 on IDO1 [3] worked out at 4.3 µM.
The corresponding values for `O[C@@H](c1c(C2CC2)ccc2cncn12)[C@H]1CC[C@H](c2cccc(Cl)c2)CC1` (single isomer, unassigned) [Example D116b] are 6.15 µM, over 10 µM and 5.9 µM.
The corresponding values for `O[C@H](c1c(C2CC2)ccc2cncn12)[C@H]1CC[C@H](c2ccccc2Cl)CC1` (single isomer, unassigned) [Example D117a] are 0.492 µM, over 10 µM and 0.03 µM.
For `O[C@@H](c1c(C2CC2)ccc2cncn12)[C@H]1CC[C@H](c2ccccc2Cl)CC1` (single isomer, unassigned) [Example D117b], the EC50 is 0.099 µM on IDO1 [1] and over 10 µM in test [2]. For the same compound, the IC50 at IDO1 [3] was over 10 µM.
In the case of `O[C@@H](c1c(C2CC2)ccc2cncn12)[C@H]1CC[C@H](c2ccc(Br)cc2)CC1` (single isomer, unassigned) [Example D118b], the EC50 on IDO1 [1] was 8.41 µM; in test [2], over 10 µM. Besides, the IC50 on IDO1 [3] was over 10 µM.
With `O[C@@H](c1c(C2CC2)ccc2cncn12)[C@H]1CC[C@H](c2ccc(-c3ccccc3)cc2)CC1` (single isomer, unassigned) [Example D119b], the EC50 at IDO1 [1] is 3.53 µM; in test [2], over 10 µM. Further, the IC50 on IDO1 [3] was found to be 2.2 µM.
In the same order, the values of `O[C@@H](c1c(C2CC2)ccc2cncn12)[C@H]1CC[C@H](c2ccc(Oc3ccccc3)cc2)CC1` (single isomer, unassigned) [Example D120b] are 4.31 µM, over 10 µM and 3.7 µM.
The corresponding values for `Nc1ccc([C@H]2CC[C@H]([C@H](O)c3c(C4CC4)ccc4cncn34)CC2)cc1` (single isomer, unassigned) [Example D122a] are 0.103 µM, over 10 µM and 0.018 µM.
The corresponding values for `Nc1ccc([C@H]2CC[C@H]([C@@H](O)c3c(C4CC4)ccc4cncn34)CC2)cc1` (single isomer, unassigned) [Example D122b] are over 10 µM, over 10 µM and 5.2 µM.
`CNC(=O)c1ccc([C@H]2CC[C@H]([C@H](O)c3c(C4CC4)ccc4cncn34)CC2)cc1` (single isomer, unassigned) [Example D124a]: the results for the EC50 (at IDO1 [1]; in test [2]) were 0.138 µM and over 10 µM, respectively. In addition, the IC50 on IDO1 [3] was 0.019 µM.
In the same order, the values of `CNC(=O)c1ccc([C@H]2CC[C@H]([C@@H](O)c3c(C4CC4)ccc4cncn34)CC2)cc1` (single isomer, unassigned) [Example D124b] are 5.23 µM, over 10 µM and 0.97 µM.

The values are drawn from patent US10882856B2 (BeiGene, Ltd., priority 2017, dated 2021).
